{"source": "patent US20260076952A1", "about": "“Agent for Treatment of Neutropenia” (Eberhard Karls Universität Tübingen Medizinische Fakultät, priority 2023, published 2026)", "key": {"[1]": {"tested_on": "CD34+ HSPCs of healthy donors", "test": "Annexin V apoptosis assay on CD34+ HSPCs", "format": "cell-based, human", "details": "40 nM, 48 hours"}, "[2]": {"tested_on": "jagn1b knock-out zebrafish mutant embryos", "test": "Zebrafish jagn1b knock-out neutropenia model, number of neutrophils", "format": "in vivo", "details": "two days treatment", "procedure": "(§1) Zebrafish transgenic lines and wild type were maintained according to standard protocols and handled in accordance with European Union animal protection directive 2010/63/EU. The maintenance was approved by the local government (Tierschutzgesetz § 11, Abs. 1, Nr. 1, husbandry permit 35/9185.46/Uni TÜ). All the experiments were performed in zebrafish embryos under 5 days post fertilization. In this study the inventors used two transgenic (tg) reporter lines, tg(mpo: gfp), where neutrophils express gfp and tg(CD41:gfp),where HSPCs express gfp, both described in the art.\n(§2) To generate the jagn1b and hax1 mutants two different approaches were used, CRISPR/Cas9-mediated knock-out and morpholino-based knock down, respectively. On the one hand, to interfere with the function of jagn1b, jagn1b-targeting sgRNA and Cas9 protein RNPs (Alt-R S.p. Cas9 nuclease, v.3, IDT) were injected into the blastomere of 1-cell stage tg (mpo: gfp) embryos, as described in the art. On the other hand, to interfere with hax1 function 1 mM hax1-specific morpholino (GeneTool) was injected into 1-cell stage tg (mpo: gfp) embryos as previously described in the art. […] After two days of treatment, the number of mpo:gfp^+ or CD41:gfp^+ cells where quantified using a Nikon stereo-fluorescent SMZ18 microscope."}, "[3]": {"tested_on": "human primary neutrophils of healthy donor", "test": "RealTime-Glo MT Cell Viability Assay on human primary neutrophils", "format": "cell-based", "details": "40 nM, compared with 0.1% DMSO", "text": "The assay measures the reducing potential of viable cells in an ATP-independent manner and the nonlytic nature, high sensitivity and rapid response of the assay make it possible to track the cell viability over time in the same plate. Ficoll-Paque density gradient media (density: 1.077 g/mL) used for isolation of peripheral blood polymononuclear cell (PBPMNs) 1 of healthy donors."}, "[4]": {"details": "prior-art clinical trials, used to inhibit CDKs and induce apoptosis in leukemia cells (Gerson et al. 2018); cited from earlier work"}, "[5]": {"tested_on": "primary bone marrow CD34+ HSPCs of ELANE-CN, HAX1-CN, JAGN1-CN and SRP54-CN patients", "test": "Granulocytic liquid culture differentiation (LCD) of CN patient CD34+ HSPCs", "format": "cell-based, human", "details": "all CN patients", "procedure": "(§3) CD34+ cells were seeded in a 24-well plate at a density of 2×10^5 cells/ml. […] Medium was exchanged every second day. On day 7, cells were plated in RPMI 1640 GlutaMAX supplemented with 10% FBS, 1% penicillin/streptomycin and 10 ng/ml G-CSF. On day 14, cells were analyzed by flow cytometry using following mouse anti-human antibodies: CD34 (BD, #348811), CD33 (BioLegend, #303416), CD45 (BioLegend, #304036), CD11b (BD, #557754), CD15 (BD, #555402), CD66b (BioLegend, #305114), CD16 (BD, #561248)."}, "[6]": {"tested_on": "in vitro generated neutrophils", "test": "Annexin V apoptosis assay on in vitro generated neutrophils", "format": "cell-based, human", "details": "day 13 of LCD, four healthy donors"}, "[7]": {"tested_on": "CD34+ HSPCs of healthy donors", "test": "RealTime-Glo MT Cell Viability Assay on CD34+ HSPCs", "format": "cell-based, human", "details": "40 nM, 48 hours, versus DMSO-treated group"}, "ELANE-CN iPSCs": {"tested_on": "ELANE-CN iPSCs", "test": "Colony-forming unit (CFU) assay of CD34+ cells from EB-based CN-iPSC culture", "format": "cell-based, human", "protocol": "Colony-forming unit (CFU) assay of CD34^+ cells harvested from EB-based CN-iPSC culture on day 14 of differentiation treated with eleven short listed small molecules.\nEB-Based Hematopoietic Differentiation of iPSCs iPSCs were cultured on SNL feeder cells for 24 hours and then dissociated using PBS/EDTA (0.02%) for 5 min. EB generation was performed by centrifugation of 2×10^4 cells per EB in 96-well plates using APEL serum-free differentiation medium (Stemcell Technologies) supplemented with bFGF (20 ng/μl) and ROCK Inhibitor (R&D). On day one, BMP4 (40 ng/μl) was added to the culture medium to induce mesodermal differentiation. On day four, EBs were plated on Matrigel-coated 6-well plates (10 EBs/well) in APEL medium supplemented with VEGF (40 ng/μl), SCF (50 ng/μl) and IL-3 (50 ng/μl). For neutrophilic differentiation, the medium was changed 3 days later to fresh APEL medium supplemented with IL3 (50 ng/μl) and G-CSF (50 ng/μl). All cytokines were purchased from R&D Systems if nothing else is indicated. First hematopoietic suspension cells appeared between day 10 and 14. Suspension cells were harvested every 3-4 days and analyzed starting from day 14 to day 32.\nThe inventors then selected eleven small molecules that could potentially mimic the differentially expressed genes (DEGs) signature between CN and CN-corrected HSPCs and screened the effect of these small molecules on granulopoiesis using their isogenic CN iPSC model."}, "[8]": {"tested_on": "in vitro generated neutrophils", "test": "Reactive oxygen species (ROS) assay of in vitro generated neutrophils", "format": "cell-based, human", "details": "differentiated in the presence of 40 nM flavopiridol"}, "[9]": {"tested_on": "in vitro generated neutrophils", "test": "RealTime-Glo MT cell viability assay on in vitro generated neutrophils", "format": "cell-based, human", "details": "day 13 of LCD, four healthy donors"}, "[10]": {"tested_on": "in vitro generated neutrophils", "test": "Phagocytosis assay of in vitro generated neutrophils", "format": "cell-based, human", "details": "differentiated in the presence of 40 nM flavopiridol"}, "HSPCs (CD41: gfp+ cells)": {"tested_on": "HSPCs (CD41: gfp+ cells)", "test": "Zebrafish in vivo model, number of HSPCs in tg(CD41:gfp) embryos", "details": "up to 10 µM, two days, compared to DMSO-treated controls", "procedure": "as §1, §2"}, "[11]": {"tested_on": "primary bone marrow CD34+ HSPCs of ELANE-CN, HAX1-CN, JAGN1-CN and SRP54-CN patients", "test": "CFU assay of primary bone marrow CD34+ HSPCs of CN patients", "format": "cell-based, human", "details": "two ELANE-CN, one HAX1-CN, one SRP54-CN patient, 40 nM", "text": "FIG. 4A. […] Data represent means±SD from two independent experiments. *P<0.05, **P<0.01."}, "[12]": {"tested_on": "in vitro generated neutrophils", "test": "Chemotaxis assay of in vitro generated neutrophils", "format": "cell-based, human", "details": "differentiated in the presence of 40 nM flavopiridol"}, "[13]": {"tested_on": "hax1-knock-down zebrafish mutant embryos (hax1 MO)", "test": "Zebrafish hax1 knock-down neutropenia model, number of neutrophils", "format": "in vivo", "details": "two days treatment", "procedure": "as §1, §2"}, "[14]": {"tested_on": "primary bone marrow CD34+ HSPCs of healthy donors", "test": "CFU assay of primary bone marrow CD34+ HSPCs of healthy donors", "format": "cell-based, human", "details": "40 nM, compared to DMSO control", "text": "FIG. 3A. […] Data represent means±SD from two independent experiments. **P<0.01."}, "[15]": {"tested_on": "primary bone marrow CD34+ HSPCs of healthy donors", "test": "Granulocytic liquid culture differentiation (LCD) of healthy donor CD34+ HSPCs", "format": "cell-based, human", "details": "for neutrophil count, morphological examination of cytospin preparations: day 14", "procedure": "as §3"}, "[16]": {"details": "three independent ELANE-CN derived iPSCs, 40 nM flavopiridol"}}, "note": "Entries after “also recorded” stand apart in the source; their conditions may differ."}
{"smiles": "CN1CC[C@H](c2c(O)cc(O)c3c(=O)cc(-c4ccccc4Cl)oc23)[C@H](O)C1", "note": "[flavopiridol]", "values": [{"measurement": "apoptosis in CD34+ HSPCs", "setting": "[1]", "result": "did not induce apoptosis"}, {"measurement": "number of neutrophils (mpo: gfp+ cells)", "setting": "[2]", "result": "significantly restored the number of neutrophils (mpo: gfp^+ cells) to a similar level to wildtype controls; also recorded: restored the number of neutrophils (mpo: gfp^+ cells) to a similar level than the wildtype controls"}, {"measurement": "viability of neutrophils", "setting": "[3]; 3 hours", "result": "No significant difference"}, {"measurement": "viability of neutrophils", "setting": "[3]; 24 hours", "result": "No significant difference"}, {"measurement": "viability of neutrophils", "setting": "[3]; 48 hours", "result": "No significant difference"}, {"measurement": "steady-state blood plasma levels", "setting": "[4]", "result": "about 350 nM"}, {"measurement": "granulopoiesis: numbers of granulocytes and mature neutrophils by flow cytometry", "setting": "[5]; 40 nM, 14 days", "result": "significant restoration of granulopoiesis"}, {"measurement": "granulopoiesis, morphological examination of cytospin preparations", "setting": "[5]; day 14", "result": "significant restoration or restoration trend of granulopoiesis"}, {"measurement": "early apoptotic cells", "setting": "[6]", "result": "about 3%"}, {"measurement": "late apoptotic cells", "setting": "[6]", "result": "less than 2%"}, {"measurement": "live cells", "setting": "[6]", "result": "More than 95%"}, {"measurement": "viability of CD34+ HSPCs", "setting": "[7]", "result": "comparable to that of the DMSO-treated group"}, {"measurement": "granulopoiesis in CN iPSCs (screening)", "setting": "ELANE-CN iPSCs; screen of eleven small molecules in isogenic CN iPSC model", "result": "markedly restored the granulopoiesis"}, {"measurement": "CFU-macrophages (CFU-Ms)", "setting": "ELANE-CN iPSCs; [16]", "result": "significant decrease"}, {"measurement": "colony-forming unit-granulocytes (CFU-G)", "setting": "ELANE-CN iPSCs; [16]", "result": "significant increase"}, {"measurement": "neutrophil function, reactive oxygen species (ROS)", "setting": "[8]", "result": "did not affect neutrophil function"}, {"measurement": "levels of viability upon differentiation", "setting": "[9]", "result": "improved levels of viability"}, {"measurement": "neutrophil function, phagocytosis", "setting": "[10]", "result": "did not affect neutrophil function"}, {"measurement": "total number of HSPCs (CD41: gfp+ cells)", "setting": "HSPCs (CD41: gfp+ cells)", "result": "did not affect"}, {"measurement": "levels of CFU-G", "setting": "[11]", "result": "significantly elevated levels of CFU-G in all CN groups"}, {"measurement": "neutrophil function, chemotaxis", "setting": "[12]", "result": "did not affect neutrophil function"}, {"measurement": "number of neutrophils (mpo: gfp+ cells)", "setting": "[13]", "result": "significantly restored the number of neutrophils (mpo: gfp^+ cells) to a similar level to wildtype controls; also recorded: increased to a similar level than the wildtype controls"}, {"measurement": "levels of CFU-G", "setting": "[14]; healthy donor one (HD1)", "result": "significantly elevated levels of CFU-G"}, {"measurement": "levels of CFU-G", "setting": "[14]; healthy donor two (HD2)", "result": "no significant change"}, {"measurement": "granulopoiesis: numbers of granulocytes (CD45+CD15+CD11b+, CD45+CD15+CD66b+) and mature neutrophils (CD45+CD15+CD16+)", "setting": "[15]; both healthy donors, 40 nM, 14 days, flow cytometry", "result": "significantly enhanced granulopoiesis"}, {"measurement": "neutrophil count, morphological examination of cytospin preparations", "setting": "[15]; healthy donor one (HD1)", "result": "no change"}, {"measurement": "neutrophil count, morphological examination of cytospin preparations", "setting": "[15]; healthy donor two (HD 2)", "result": "a significant increase in neutrophil count"}]}
